Reference: PubChem BioAssay AID449764 (Southern Research Specialized Biocontainment Screening …, 2010)

Tested on: Mycobacterium tuberculosis H37Rv growth inhibition, no glycerol
Experiment: Mycobacterium tuberculosis H37Rv growth inhibition, no glycerol, confirmatory dose response (AID 449764);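 note: growth read after 7 days of incubation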
Settings: for IC90: measured here: IC90 growth inhibition

Compound | IC50 [µM] | IC90 [µM]
CN(C)c1ccc(-c2cc(O)c3ncccc3c2)cc1 | 2.63 | 3.53
Cc1cc(C)nc(-n2nc(C)cc2NC(=O)CN2CCC(C)CC2)n1 | 16.4 | 35.3
C/C(Cl)=C\COc1cc(C)nc2c(Br)cccc12 | 21.2 | 24.4
O=C([O-])c1ccccc1-[n+]1c(-c2ccccc2)cc(-c2ccccc2)cc1-c1ccccc1 | 22 | 24.5
O=C(C1CCCN(c2ncnc3c2nc2n3CCCCC2)C1)N1CCN(c2ccc(Cl)cc2)CC1 (stereo not drawn) | 38.1 | 51
Nc1nnnn1/N=C/C(Br)=C/c1ccccc1 | 5.6 | 10.9
C=CCOc1ccccc1CN(C(=O)CCl)c1ccc2c(c1)OCO2 | 2.7 | 3.72
Fc1ccc2[nH]c3c(NCc4ccccc4)ncnc3c2c1 | 23.8 | 27
O=C(/C=C\c1cccs1)N1CCN(Cc2ccc3c(c2)OCO3)CC1 | 0.6 | 1.45
O=c1[nH]c2ccccc2c2oc(CCl)nc12 | 7.37 | 22.1
C/C(=N/Nc1cc(-c2ccccc2)nc(-c2ccccc2)n1)c1ccc(O)cc1 | 9.73 | 12.7
CN(C)CCOc1nc(-c2ccccc2)nc2c1oc1ccccc12 | 19.1 | 25.6
COc1cccc2sc(Nc3nnc(-c4cccs4)o3)nc12 | 33.9 | 42.7
CCCCOC(=O)CCN1C(=O)/C(=C2\SC(=S)N(CCC(=O)OCCCC)C2=O)SC1=S | 5.44 | 10.6
CC(C)OC(=O)c1ccc(COC(=O)c2cnccn2)cc1 | 18 | > 100
O=C1NCC(O)=C1C=Nc1ccccc1O | 5.54 | 7.6
CCCCN(C)CCNC(=O)c1ccc(Cn2c(=S)[nH]c3ccc(Br)cc3c2=O)cc1 | 18.9 | 27.9
CCOC(=O)CSc1ncnc2c1sc1nc(N3CCOCC3)c3c(c12)CCCC3 | 24.9 | 27.9
NC(N)=N/N=C/c1ccc(N(c2ccccc2)c2ccccc2)cc1 | 9.86 | 12.8
Nc1ccc2cc(Br)ccc2c1 | 54.1 | 81.6
c1cc(Nc2cccc3nccnc23)c2nccnc2c1 | 24.4 | 28.3
CC1CCN(C(=O)c2ccc(-c3ccccc3Cl)o2)CC1 | 41 | 60.1
COC(=O)c1c(NC(=S)NN2CCN(C)CC2)sc2c1CCC(C)C2 (stereo not drawn) | 22.8 | 26.6

Compound | IC50 [µM] | IC90 [µM]
O=C1C2C(C(=O)N1/N=C/c1ccc([N+](=O)[O-])o1)C1C=CC2C12CC2 (stereo not drawn) | 32.3 | 52.8
O=Nc1c2nc3ccccc3n(O)c-2c2ccccc12 | 12.2 | 13.7
CCCCN(CCCC)CCC(O)c1cc2c(Cl)cc(Cl)cc2c2cc(C(F)(F)F)ccc12 (stereo not drawn) | 17.6 | 23.4
Cc1c(Cl)ccc2sc(N3CCN(C(=O)C4=COCCO4)CC3)nc12 | 22.5 | 30.6
Cc1ccc(NC(=O)c2sccc2-n2cccc2)c(C)c1 | – | > 100
O=[N+]([O-])c1cc(C=Nc2ccc3ccccc3c2)ccc1Br | 34.5 | 44.5
CCCCCOc1ccc(NC2=CC(=O)CCC2)cc1 | 77.8 | 99
COc1ccc(C)c2sc(N(CCN(C)C)C(=O)/C=C/c3cccs3)nc12 | 30.6 | 36.1
CCCn1c(=N)n(CC(=O)c2ccc(OCC(=O)OC)cc2)c2ccccc21 | 20.1 | 35.9
CCCCCCC[N+](CC)(CC)CCCCc1ccc(Cl)cc1 | 37.1 | 49.8
O=C(CSc1nc2ccccc2c(=O)[nH]1)NCc1ccc(Cl)cc1 | 2.78 | 3.22
Nc1c(C(=O)OCC2CCCO2)c2nc3ccccc3nc2n1C1CCCC1 (stereo not drawn) | 60.7 | 86.8
Cc1nn(-c2nc3ccccc3[nH]2)c(N)c1-c1ccc(Cl)cc1 | 3.72 | > 100
O=[N+]([O-])c1ccc(-n2cnc3ccccc32)c([N+](=O)[O-])c1 | 96.4 | > 100
O=C(NC1CCN(C(=O)N2c3ccccc3Sc3ccccc32)CC1)c1ccccc1F | – | > 100
Cc1ccccc1N1CCN(C(=O)c2ccc(Oc3ccc(C(F)(F)F)cn3)cc2)CC1 | 30.2 | 54.6
COc1ccc(OCc2cccc(C(=O)Nn3cc([N+](=O)[O-])cn3)c2)cc1 | 26.2 | 42.9
O=c1oc2ccccc2c2c1nc(C(F)(F)F)n2-c1ccccc1 | 13.9 | 23.8
CCN(CC)c1ccc2c(Cl)c(Br)c(=O)oc2c1 | 22.6 | 61.6
Cc1cncn1CCc1nc2c3ccccc3nc(SCC(=O)Nc3cccc(Cl)c3)n2n1 | 27.4 | 31.9
C#C[C@]1(O)CC[C@H]2[C@@H]3CCc4cc(OC5CCCC5)ccc4[C@H]3CC[C@@]21C | 36.6 | 54.7
Cn1c(/C=N/Nc2nc3ccccc3[nH]2)nc2ccccc21 | 61.8 | 79.8
